Measurements as given in ChEMBL document CHEMBL2169878 (J Med Chem, 2012).

Assays:
Plasmodium falciparum [1] = test: Antiplasmodial activity against chloroquine-sensitive Plasmodium falciparum NF54 infected in human erythrocytes assessed as inhibition of [3H]hypoxanthine incorporation incubated for 48 hrs prior to [3H]hypoxanthine addition measured after 48 hrs by liquid scintillation counting; assay type: functional, organism-based
Salmonella typhimurium [2] = test: Mutagenicity against Salmonella typhimurium TA100 assessed as revertants at 33 uM incubated for 90 mins followed by drug washout measured after 2 days relative to positive control; assay type: toxicity, organism-based; settings: salmonella enterica subsp. enterica serovar typhimurium, 1.5 h
Salmonella typhimurium [3] = test: Mutagenicity against Salmonella typhimurium TA100 assessed as revertants at 17 uM incubated for 90 mins followed by drug washout measured after 2 days relative to positive control; assay type: toxicity, organism-based; settings: salmonella enterica subsp. enterica serovar typhimurium
Salmonella typhimurium [4] = test: Mutagenicity against Salmonella typhimurium TA100 assessed as revertants at 4 uM incubated for 90 mins followed by drug washout measured after 2 days relative to positive control; assay type: toxicity, organism-based; settings: salmonella enterica subsp. enterica serovar typhimurium, 1.5 h
Salmonella typhimurium [5] = test: Mutagenicity against Salmonella typhimurium TA98 assessed as revertants at 2 uM incubated for 90 mins followed by drug washout measured after 2 days relative to positive control; assay type: toxicity, organism-based; settings: salmonella enterica subsp. enterica serovar typhimurium, 1.5 h
Plasmodium falciparum [6] = test: Antiplasmodial activity against chloroquine-resistant Plasmodium falciparum K1 infected in human erythrocytes assessed as inhibition of [3H]hypoxanthine incorporation incubated for 48 hrs prior to [3H]hypoxanthine addition measured after 48 hrs by liquid scintillation counting; assay type: functional, organism-based
Salmonella typhimurium [7] = test: Mutagenicity against Salmonella typhimurium TA100 assessed as revertants at 9 uM incubated for 90 mins followed by drug washout measured after 2 days relative to positive control; assay type: toxicity, organism-based; settings: salmonella enterica subsp. enterica serovar typhimurium, 1.5 h
Plasmodium falciparum [8] = test: Antiplasmodial activity against chloroquine-sensitive Plasmodium falciparum D10 infected in human RBC after 72 hrs by parasite lactate dehydrogenase assay; assay type: functional, organism-based; settings: D10, 72 h
[9] = Cytotoxicity against mouse NIH3T3 cells after 24 hrs by neutral red dye uptake assay; assay type: cell-based; settings: read-out: TC50
Salmonella typhimurium [10] = test: Mutagenicity against Salmonella typhimurium TA98 assessed as revertants at 66 uM incubated for 90 mins followed by drug washout measured after 2 days relative to positive control; assay type: toxicity, organism-based; settings: salmonella enterica subsp. enterica serovar typhimurium
Salmonella typhimurium [11] = test: Mutagenicity against Salmonella typhimurium TA98 assessed as revertants at 17 uM incubated for 90 mins followed by drug washout measured after 2 days relative to positive control; assay type: toxicity, organism-based; settings: salmonella enterica subsp. enterica serovar typhimurium
Salmonella typhimurium [12] = test: Mutagenicity against Salmonella typhimurium TA100 assessed as revertants at 2 uM incubated for 90 mins followed by drug washout measured after 2 days relative to positive control; assay type: toxicity, organism-based; settings: salmonella enterica subsp. enterica serovar typhimurium
Salmonella typhimurium [13] = test: Mutagenicity against Salmonella typhimurium TA98 assessed as revertants at 4 uM incubated for 90 mins followed by drug washout measured after 2 days relative to positive control; assay type: toxicity, organism-based; settings: salmonella enterica subsp. enterica serovar typhimurium
[14] = Cytotoxicity against human HepG2 cells after 24 hrs by neutral red dye uptake assay; assay type: cell-based; settings: read-out: TC50
Salmonella typhimurium [15] = test: Mutagenicity against Salmonella typhimurium TA98 assessed as revertants at 8 uM incubated for 90 mins followed by drug washout measured after 2 days relative to positive control; assay type: toxicity, organism-based; settings: salmonella enterica subsp. enterica serovar typhimurium, 1.5 h
Plasmodium falciparum [16] = test: Antiplasmodial activity against chloroquine-resistant Plasmodium falciparum W2 infected in human RBC after 72 hrs by parasite lactate dehydrogenase assay; assay type: functional, organism-based; settings: W2, 72 h
Salmonella typhimurium [17] = test: Mutagenicity against Salmonella typhimurium TA100 assessed as revertants at 66 uM incubated for 90 mins followed by drug washout measured after 2 days relative to positive control; assay type: toxicity, organism-based; settings: salmonella enterica subsp. enterica serovar typhimurium
Salmonella typhimurium [18] = test: Mutagenicity against Salmonella typhimurium TA98 assessed as revertants at 33 uM incubated for 90 mins followed by drug washout measured after 2 days relative to positive control; assay type: toxicity, organism-based; settings: salmonella enterica subsp. enterica serovar typhimurium, 1.5 h
Salmonella typhimurium [19] = test: Mutagenicity against Salmonella typhimurium TA98 assessed as revertants at 16 uM incubated for 90 mins followed by drug washout measured after 2 days relative to positive control; assay type: toxicity, organism-based; settings: salmonella enterica subsp. enterica serovar typhimurium
[20] = molecular target: T1, Chloroquine resistance transporter (Plasmodium falciparum) (UniProt Q9N623); test: Inhibition of chloroquine-resistant Plasmodium falciparum Dd2 CRT expressed in Xenopus laevis oocyte assessed as inhibition of [3H]chloroquine uptake at 100 uM measured from 1 to 2 hrs
T1 sequence (whole entry): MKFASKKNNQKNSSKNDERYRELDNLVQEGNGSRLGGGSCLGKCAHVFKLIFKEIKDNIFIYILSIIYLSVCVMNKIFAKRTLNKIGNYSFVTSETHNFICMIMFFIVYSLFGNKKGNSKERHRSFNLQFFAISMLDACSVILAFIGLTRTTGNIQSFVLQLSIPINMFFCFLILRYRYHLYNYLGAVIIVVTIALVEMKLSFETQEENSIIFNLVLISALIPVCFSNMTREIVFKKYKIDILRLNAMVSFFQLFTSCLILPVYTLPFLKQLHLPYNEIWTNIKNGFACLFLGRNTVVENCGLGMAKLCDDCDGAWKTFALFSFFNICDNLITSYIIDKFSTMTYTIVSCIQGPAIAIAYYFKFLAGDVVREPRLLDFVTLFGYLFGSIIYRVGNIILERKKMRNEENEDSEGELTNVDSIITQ

Salmonella typhimurium [21] = test: Mutagenicity against Salmonella typhimurium TA98 assessed as revertants at 1 uM incubated for 90 mins followed by drug washout measured after 2 days relative to positive control; assay type: toxicity, organism-based; settings: salmonella enterica subsp. enterica serovar typhimurium
Salmonella typhimurium [22] = test: Mutagenicity against Salmonella typhimurium TA100 assessed as revertants at 16 uM incubated for 90 mins followed by drug washout measured after 2 days relative to positive control; assay type: toxicity, organism-based; settings: salmonella enterica subsp. enterica serovar typhimurium
Salmonella typhimurium [23] = test: Mutagenicity against Salmonella typhimurium TA100 assessed as revertants at 32 uM incubated for 90 mins followed by drug washout measured after 2 days relative to positive control; assay type: toxicity, organism-based; settings: salmonella enterica subsp. enterica serovar typhimurium
Plasmodium falciparum [24] = test: Resistance ratio of IC50 for chloroquine-resistant Plasmodium falciparum K1 to IC50 for chloroquine-sensitive Plasmodium falciparum NF54; assay type: functional
Salmonella typhimurium [25] = test: Mutagenicity against Salmonella typhimurium TA98 assessed as revertants at 32 uM incubated for 90 mins followed by drug washout measured after 2 days relative to positive control; assay type: toxicity, organism-based; settings: salmonella enterica subsp. enterica serovar typhimurium, 1.5 h
Plasmodium falciparum [26] = test: Resistance ratio of IC50 for chloroquine-resistant Plasmodium falciparum W2 to IC50 for chloroquine-sensitive Plasmodium falciparum D10; assay type: functional
Salmonella typhimurium [27] = test: Mutagenicity against Salmonella typhimurium TA100 assessed as revertants at 1 uM incubated for 90 mins followed by drug washout measured after 2 days relative to positive control; assay type: toxicity, organism-based; settings: salmonella enterica subsp. enterica serovar typhimurium, 1.5 h

Fc1cc(C(Nc2ccnc3cc(C(F)(F)F)ccc23)c2ccc(Cl)cc2)ccc1CN1CCCC1 (racemic)
IC50 (Plasmodium falciparum [1]): 0.02 µM | Activity (Salmonella typhimurium [2]): 8% | Activity (Salmonella typhimurium [3]): 4% | Activity (Salmonella typhimurium [4]): 3% | Activity (Salmonella typhimurium [5]): 1% | IC50 (Plasmodium falciparum [6]): 0.033 µM | Activity (Salmonella typhimurium [7]): 1% | IC50 (Plasmodium falciparum [8]): 0.051 µM | CC50 at 24 h [9]: 34 µM | Activity (Salmonella typhimurium [10]): 8% | Activity (Salmonella typhimurium [11]): 4% | Activity (Salmonella typhimurium [12]): 4% | Activity (Salmonella typhimurium [13]): 1% | CC50 at 24 h [14]: 19 µM | Activity (Salmonella typhimurium [15]): 1% | IC50 (Plasmodium falciparum [16]): 0.076 µM | Activity (Salmonella typhimurium [17]): 1% | Activity (Salmonella typhimurium [18]): 4%

Clc1cccc(C(Nc2ccnc3cc(Cl)ccc23)c2ccc(CN3CCCC3)cc2)c1 (racemic)
Activity (Salmonella typhimurium [4]): 0% | Activity (Salmonella typhimurium [5]): 2% | Activity (Salmonella typhimurium [19]): 14% | inhibition [20]: 70% | Activity (Salmonella typhimurium [7]): 5% | Activity (Salmonella typhimurium [21]): 2% | Activity (Salmonella typhimurium [22]): 10% | Activity (Salmonella typhimurium [23]): 2% | Ratio IC50 (Plasmodium falciparum [24]): 1.3 | CC50 at 24 h [9]: 9 µM | Activity (Salmonella typhimurium [25]): 2% | Ratio IC50 (Plasmodium falciparum [26]): 1 | Activity (Salmonella typhimurium [12]): 2% | Activity (Salmonella typhimurium [13]): 0% | CC50 at 24 h [14]: 31 µM | Activity (Salmonella typhimurium [15]): 6% | Activity (Salmonella typhimurium [27]): 5%
